Read-outs that look alike come from different tables or passages of the source.
Key:
[1] = tested on: HCT-116 human colon carcinoma cells; assay: In vitro cytotoxicity, XTT assay, HCT-116 human colon carcinoma cells; assay type: cell-based; settings: read-out: IC50 HCT-116
[2] = tested on: HCT-116/VM46 human colon carcinoma cells; assay: In vitro cytotoxicity, XTT assay, HCT-116/VM46 cells (teniposide-resistant, multidrug resistance phenotype); assay type: cell-based; settings: for fold resistance relative to HCT116 cells: 4320 min; for IC50: Homo sapiens, read-out: IC50 HCT-116/VM46
[3] = background statement; cited from earlier work
[4] = HCT-116/VM46 relative to HCT116, value in parenthesis
[5] = HCT-116/VM46, teniposide-resistant, multidrug resistance phenotype, XTT, 72 hours, 37° C.

C=C1C2=CC(=O)[C@]3(C)[C@@H](OC(=O)C(F)Cl)C[C@H]4OC[C@@]4(OC(C)=O)[C@H]3[C@H](OC(=O)c3ccccc3)[C@](O)(C[C@@H]1OC(=O)[C@H](O)[C@@H](NC(=O)c1ccccc1)c1ccccc1)C2(C)C (some centres unmarked) [Example 3, 7-O-chlorofluoroacetyl-10-desacetoxy-11,12-dihydrotaxol-10,12(18)-diene] showed an IC50 ([1]; HCT-116, 72 h) of 38 nM.

C=C1C2=CC(=O)[C@]3(C)[C@H](O)C[C@H]4OC[C@@]4(OC(C)=O)[C@H]3[C@H](OC(=O)c3ccccc3)[C@](O)(C[C@@H]1OC(=O)[C@H](O)[C@@H](NC(=O)c1ccccc1)c1ccccc1)C2(C)C [Example 16, 10-Desacetoxy-11,12-dihydro-7-epitaxol-10,12(18)-diene] gave an IC50 ([1]; HCT-116, 72 h) of 40 nM.

For CC(=O)O[C@@]12CO[C@@H]1C[C@@H](O)[C@@]1(C)C(=O)CC3=C(C)[C@@H](OC(=O)[C@H](O)[C@@H](NC(=O)c4ccccc4)c4ccccc4)C[C@@](O)([C@@H](OC(=O)c4ccccc4)[C@H]21)C3(C)C [Example 13, 7-Epi-10-desacetoxytaxol], the IC50 ([1]; HCT-116, XTT, 72 hours, 37° C.) was greater than 98 nM, the “fold resistance relative to HCT116 cells” value [2, 4] was less than 32 fold and the IC50 [2, 5] was 3090 nM.

With CC(=O)O[C@H]1C(=O)[C@@]2(C)[C@H]([C@H](OC(=O)c3ccccc3)[C@]3(O)C[C@H](OC(=O)[C@H](O)[C@@H](NC(=O)c4ccccc4)c4ccccc4)C(C)=C1C3(C)C)[C@]1(OC(C)=O)CO[C@@H]1C[C@@H]2O [Taxol] the IC50 ([1]; HCT-116, 72 h) was 4 nM, the IC50 ([2]; HCT-116/VM46, 72 h) was 440 nM and the “fold resistance relative to HCT116 cells” value ([2]; human, hct-116/vm46 cells) was 124 fold. For the same compound, the “antitumor activity in in vivo animal models” value [3] was “excellent antitumor activity”.

With C=C1C2=CC(=O)[C@@]3(C)[C@H]([C@H](OC(=O)c4ccccc4)[C@](O)(C[C@@H]1OC(=O)[C@H](O)[C@@H](NC(=O)c1ccccc1)c1ccccc1)C2(C)C)[C@]1(OC(C)=O)CO[C@@H]1C[C@@H]3O [Example 9, 10-Desacetoxy-11,12-dihydrotaxol-10,12(18)-diene] the IC50 ([1]; HCT-116, 72 h) was 38 nM.

CC(=O)O[C@@]12CO[C@@H]1C[C@H](OC(=O)C(F)Cl)[C@@]1(C)C(=O)CC3=C(C)[C@@H](OC(=O)[C@H](O)[C@@H](NC(=O)c4ccccc4)c4ccccc4)C[C@@](O)([C@@H](OC(=O)c4ccccc4)[C@H]21)C3(C)C (some centres unmarked) [Example 4, 7-O-chlorofluoroacetyl-10-desacetoxytaxol] gave an IC50 ([1]; HCT-116, 72 h) of 8 nM.

In the case of CC(=O)O[C@@]12CO[C@@H]1C[C@H](O)[C@@]1(C)C(=O)CC3=C(C)[C@@H](OC(=O)[C@H](O)[C@@H](NC(=O)c4ccccc4)c4ccccc4)C[C@@](O)([C@@H](OC(=O)c4ccccc4)[C@H]21)C3(C)C [Example 10, 10-Desacetoxytaxol], the IC50 ([1]; HCT-116, XTT, 72 hours, 37° C.) is reported as 8 nM, the “fold resistance relative to HCT116 cells” value [2, 4] is reported as 153 fold and the IC50 [2, 5] is reported as 1220 nM.
